US20240190849A1, “AMINOPYRIMIDINE COMPOUNDS AND METHODS OF THEIR USE” (TYRA BIOSCIENCES, INC., priority 2021, published 2024)

Experiments:
FGFR3 (V555M) = target: T1, FGFR3 (V555M) (Homo sapiens, UniProt P22607, V555M); assay: Kinase binding assay (kinase-tagged T7 phage, affinity beads, qPCR readout), FGFR3 (V555M); conditions: FGFR binding data
T1 construct: made in house; host or cells: E. coli derived from BL21, infected with T7 phage
Outline: (§1)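 Kd values derive from Hill-equation fits (slope −1, Levenberg-Marquardt) of qPCR-quantified kinase recovered from ligand-coated beads. Compounds ran as 11-point 3-fold series, final DMSO 0.9%, with 1 hour room-temperature binding.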

FGFR1 = target: T2, FGFR1 (Homo sapiens, UniProt P11362); assay: Kinase binding assay (kinase-tagged T7 phage, affinity beads, qPCR readout), FGFR1; conditions: FGFR binding data
T2 construct: made in house; host or cells: E. coli derived from BL21, infected with T7 phage
T2 sequence (P11362 22-822): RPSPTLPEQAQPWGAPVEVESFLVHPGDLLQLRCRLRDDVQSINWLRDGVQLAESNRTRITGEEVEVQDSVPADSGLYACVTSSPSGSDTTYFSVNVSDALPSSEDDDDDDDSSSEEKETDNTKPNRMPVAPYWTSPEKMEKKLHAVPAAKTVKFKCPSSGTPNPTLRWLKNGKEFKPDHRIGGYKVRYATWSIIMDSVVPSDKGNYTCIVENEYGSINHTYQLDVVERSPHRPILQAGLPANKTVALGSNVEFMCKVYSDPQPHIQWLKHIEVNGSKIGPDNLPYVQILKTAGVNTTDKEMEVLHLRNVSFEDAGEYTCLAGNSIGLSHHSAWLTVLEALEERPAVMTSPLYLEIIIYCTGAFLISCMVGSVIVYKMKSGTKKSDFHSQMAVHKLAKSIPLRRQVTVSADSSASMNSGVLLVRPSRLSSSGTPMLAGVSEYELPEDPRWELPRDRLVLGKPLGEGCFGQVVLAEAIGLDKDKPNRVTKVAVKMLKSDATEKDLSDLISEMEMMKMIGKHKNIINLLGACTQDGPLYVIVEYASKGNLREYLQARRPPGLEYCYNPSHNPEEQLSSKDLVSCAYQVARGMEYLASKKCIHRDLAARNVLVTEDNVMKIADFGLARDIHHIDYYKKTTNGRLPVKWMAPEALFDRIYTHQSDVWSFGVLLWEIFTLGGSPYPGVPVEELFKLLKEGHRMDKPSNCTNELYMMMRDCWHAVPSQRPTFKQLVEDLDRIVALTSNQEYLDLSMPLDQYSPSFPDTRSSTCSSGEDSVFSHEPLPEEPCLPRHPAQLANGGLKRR
Outline: as §1

[1] = tested on: RT112/84 (Bladder Cancer), FGFR3-TACC3 fusion; assay: Cancer cell viability assay (Cell Titer-Glo), RT112/84; assay type: cell-based; conditions: Homo sapiens, RT112/84 cells, 72 hours
Excerpt: (§2) RT112/84, UM-UC-14, SNU-16 and KG-1 Cancer Cell Line Cell Viability Assays
(§3) To detect the change of intracellular ATP by Cell Titer-Glo@ and to evaluate the inhibitory effect of the compounds on cancer cell lines by determining the in vitro IC50 value of the compounds.
(§4) Cell Titer-Glo@ 2.0 Luminescent cell viability assay reagent was purchased from Promega (Madison, WI). RT112/84, SNU-16, and KG-1 cell lines were purchased from American Type Culture Collection (Manassas, VA). UM-UC-14 cell line was purchased from Sigma (St. Louis, MO). RT112/84, UM-UC-14, SNU-16, and KG-1 cells were cultured in RPMI1640 media supplemented with 10% fetal bovine serum. Cultures were maintained at 37° C. in a humidified atmosphere of 5% CO2 and 95% air.
(§5) Cell Viability Assay Procedure: Cells were plated in 96-well clear bottom/white plates (Corning #3903) at 10,000 cells/well in 100 μl of media, incubated overnight. The next day, test compound DMSO stock solutions were made at 10 mM and 2 μM final concentration. Compounds were then added to cells in a 9-dose, […] dilution series starting at 30 μM with an HP 300e Digital Dispenser (each dose was applied in triplicate). DMSO was backfilled to each well up to 301 nL total volume of test compound+DMSO, and a total of 301 nL DMSO was added to a control/no test compound well in triplicate. The cells in cell culture plates were incubated with the compounds at 37° C. and 5% CO2 for 72 hours. Then 50 μl of Cell Titer Glo 2.0 reagent was added to each well of the cell culture plates. The contents were covered from light and mixed on an orbital shaker at room temperature for 10 min. Luminescence was recorded by a Synergy H1 Microplate Reader (Biotek, Winooski, VT). Cells were assessed as a percentage of DMSO only treated control cells. Curves were plotted and IC50 values were calculated using the GraphPad Prism 8 program based on a sigmoidal dose-response equation (4 parameter).

FGFR2 = target: T3, FGFR2 (Homo sapiens, UniProt P21802); assay: Kinase binding assay (kinase-tagged T7 phage, affinity beads, qPCR readout), FGFR2; conditions: FGFR binding data
T3 construct: made in house; host or cells: E. coli derived from BL21, infected with T7 phage
T3 sequence (P21802 22-821): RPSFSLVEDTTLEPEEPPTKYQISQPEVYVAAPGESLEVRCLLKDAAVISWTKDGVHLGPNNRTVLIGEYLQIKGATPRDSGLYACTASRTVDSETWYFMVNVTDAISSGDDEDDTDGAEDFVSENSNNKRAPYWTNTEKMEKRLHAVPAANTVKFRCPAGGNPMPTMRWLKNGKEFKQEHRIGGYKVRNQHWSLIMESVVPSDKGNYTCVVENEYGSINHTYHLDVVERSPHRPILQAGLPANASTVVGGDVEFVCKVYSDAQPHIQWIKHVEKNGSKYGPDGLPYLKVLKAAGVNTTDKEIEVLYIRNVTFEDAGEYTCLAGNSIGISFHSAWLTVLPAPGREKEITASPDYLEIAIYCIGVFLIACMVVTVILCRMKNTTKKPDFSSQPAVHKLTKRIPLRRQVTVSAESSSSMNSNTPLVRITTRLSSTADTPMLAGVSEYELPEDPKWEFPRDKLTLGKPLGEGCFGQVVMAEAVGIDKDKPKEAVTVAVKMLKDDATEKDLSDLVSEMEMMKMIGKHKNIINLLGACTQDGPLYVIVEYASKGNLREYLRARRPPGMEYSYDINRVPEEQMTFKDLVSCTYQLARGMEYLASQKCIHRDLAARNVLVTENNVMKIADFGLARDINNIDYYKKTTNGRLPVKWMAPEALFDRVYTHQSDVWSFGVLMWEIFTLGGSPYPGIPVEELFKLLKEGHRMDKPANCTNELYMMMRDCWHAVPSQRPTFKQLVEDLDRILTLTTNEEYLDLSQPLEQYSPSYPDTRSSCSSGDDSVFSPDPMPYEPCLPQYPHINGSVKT
Outline: as §1

FGFR3 = target: T4, FGFR3 (Homo sapiens, UniProt P22607); assay: Kinase binding assay (kinase-tagged T7 phage, affinity beads, qPCR readout), FGFR3; conditions: FGFR binding data
T4 construct: made in house; host or cells: E. coli derived from BL21, infected with T7 phage
T4 sequence (P22607 23-806): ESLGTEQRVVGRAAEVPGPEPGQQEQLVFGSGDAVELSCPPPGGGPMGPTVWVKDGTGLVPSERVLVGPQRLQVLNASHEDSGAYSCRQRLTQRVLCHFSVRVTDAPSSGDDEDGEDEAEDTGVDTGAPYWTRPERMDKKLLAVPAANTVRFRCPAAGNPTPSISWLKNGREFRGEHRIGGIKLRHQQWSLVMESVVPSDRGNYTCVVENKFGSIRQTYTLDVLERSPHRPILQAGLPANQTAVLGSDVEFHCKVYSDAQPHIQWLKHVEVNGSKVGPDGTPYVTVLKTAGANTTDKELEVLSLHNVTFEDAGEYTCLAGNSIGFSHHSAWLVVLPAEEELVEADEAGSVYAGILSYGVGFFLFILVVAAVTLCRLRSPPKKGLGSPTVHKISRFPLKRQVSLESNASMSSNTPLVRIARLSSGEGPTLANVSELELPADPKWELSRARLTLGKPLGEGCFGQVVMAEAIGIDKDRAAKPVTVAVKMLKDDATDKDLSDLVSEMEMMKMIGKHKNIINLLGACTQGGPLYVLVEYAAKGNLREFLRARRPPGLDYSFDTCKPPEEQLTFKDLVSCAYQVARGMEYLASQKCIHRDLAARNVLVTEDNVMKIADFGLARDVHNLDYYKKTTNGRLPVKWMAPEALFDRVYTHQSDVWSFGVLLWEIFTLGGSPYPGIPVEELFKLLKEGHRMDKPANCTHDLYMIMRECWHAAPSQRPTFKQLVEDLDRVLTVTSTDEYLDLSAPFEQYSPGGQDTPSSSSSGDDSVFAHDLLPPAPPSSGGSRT
Outline: as §1

[2] = tested on: UM-UC-14 (Bladder Cancer), FGFR3(S249C); assay: Cancer cell viability assay (Cell Titer-Glo), UM-UC-14; assay type: cell-based; conditions: UMUC14, UM-UC-14 cells, 72 hours
Excerpt: as §2, §3, §4, §5

[3] = tested on: KG-1 (Acute Myeloid Leukemia), FGFR1OP2-FGFR1 fusion; assay: Cancer cell viability assay (Cell Titer-Glo), KG-1; assay type: cell-based; conditions: Homo sapiens, KG-1 cells, 72 hours
Excerpt: as §2, §3, §4, §5

[4] = tested on: SNU-16 (Gastric Carcinoma), FGFR2 amplification; assay: Cancer cell viability assay (Cell Titer-Glo), SNU-16; assay type: cell-based; conditions: Homo sapiens, SNU-16 cells, 72 hours, read-out: SNU16 FGFR2 (IC50 nM)
Outline: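 Cells seeded at 10,000/well in RPMI1640 with 10% FBS, then exposed 72 h at 37° C. to a 9-point 10-fold dilution series from 30 μM, in triplicate. Viability read as ATP luminescence (CellTiter-Glo 2.0) as percent of DMSO control; IC50 from 4-parameter sigmoidal fit.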

T1 sequence (P22607 23-806 V555M): as the sequence (P22607 23-806) above, with V533M counted along it

Kd (FGFR3 (V555M)) [nM]	Kd (FGFR1) [nM]	IC50 [1] [nM]	Kd (FGFR2) [nM]	Kd (FGFR3) [nM]	IC50 [2] [nM]	IC50 [3] [nM]	IC50 [4] [nM]	SMILES
0.1 to 100	0.1 to 100	0.1 to 100	0.1 to 100	0.1 to 100	0.1 to 100	–	0.1 to 100	C=CC(=O)Nc1ccc2c(c1)c(C)cn2-c1nc(Nc2cn(C)nc2C)ncc1F [Example 167, N-[1-[2-[(1,3-Dimethylpyrazol-4-yl)amino]-5-fluoro-pyrimidin-4-yl]-3-methyl-indol-5-yl]prop-2-enamide]
0.1 to 100	0.1 to 100	0.1 to 100	0.1 to 100	0.1 to 100	0.1 to 100	–	–	C=CC(=O)Nc1ccc2c(-c3ccnc(Nc4cnn(C5CCC5)c4)n3)cn(C)c2c1 [Example 189, N-[3-[2-[(1-cyclobutylpyrazol-4-yl)amino]pyrimidin-4-yl]-1-methyl-indol-6-yl]prop-2-enamide]
0.1 to 100	0.1 to 100	0.1 to 100	0.1 to 100	0.1 to 100	0.1 to 100	–	0.1 to 100	C=CC(=O)Nc1ccc2c(c1)c(C)cn2-c1nc(Nc2cnn(CCCO)c2)ncc1F [Example 160, N-[1-[5-fluoro-2-[[1-(3-hydroxypropyl)pyrazol-4-yl]amino]pyrimidin-4-yl]-3-methyl-indol-5-yl]prop-2-enamide]
0.1 to 100	0.1 to 100	–	0.1 to 100	0.1 to 100	0.1 to 100	0.1 to 100	0.1 to 100	C=CC(=O)Nc1ccc2c(c1)c(C)cn2-c1nc(Nc2cnn(C)c2C)ncc1F [Example 146, N-[1-[2-[(1,5-dimethylpyrazol-4-yl)amino]-5-fluoro-pyrimidin-4-yl]-3-methyl-indol-5-yl]prop-2-enamide]
0.1 to 100	0.1 to 100	0.1 to 100	0.1 to 100	0.1 to 100	0.1 to 100	–	0.1 to 100	C=CC(=O)Nc1ccc2c(c1)c(CC)cn2-c1nc(Nc2cnn(C)c2)ncc1C [Example 136, N-[3-ethyl-1-[5-methyl-2-[(1-methylpyrazol-4-yl)amino]pyrimidin-4-yl]indol-5-yl]prop-2-enamide]
0.1 to 100	0.1 to 100	0.1 to 100	0.1 to 100	0.1 to 100	0.1 to 100	–	0.1 to 100	C=CC(=O)Nc1ccc2c(c1)c(C)cn2-c1nc(Nc2cnn(CCOC)c2)ncc1F [Example 163, N-[1-[5-fluoro-2-[[1-(2-methoxyethyl)pyrazol-4-yl]amino]pyrimidin-4-yl]-3-methyl-indol-5-yl]prop-2-enamide]
0.1 to 100	0.1 to 100	0.1 to 100	0.1 to 100	0.1 to 100	0.1 to 100	–	0.1 to 100	C=CC(=O)Nc1ccc2c(c1)c(C)cn2-c1nc(Nc2cnn(CCO)c2)ncc1C [Example 121, N-[1-[2-[[1-(2-hydroxyethyl)pyrazol-4-yl]amino]-5-methyl-pyrimidin-4-yl]-3-methyl-indol-5-yl]prop-2-enamide]
0.1 to 100	0.1 to 100	0.1 to 100	0.1 to 100	0.1 to 100	0.1 to 100	–	0.1 to 100	C=CC(=O)Nc1ccc2c(c1)c(C)cn2-c1nc(Nc2cnn(CC(C)(C)O)c2)ncc1F [Example 181, N-[1-[5-fluoro-2-[[1-(2-hydroxy-2-methyl-propyl)pyrazol-4-yl]amino]pyrimidin-4-yl]-3-methyl-indol-5-yl]prop-2-enamide]
0.1 to 100	0.1 to 100	0.1 to 100	0.1 to 100	0.1 to 100	0.1 to 100	–	–	C=CC(=O)Nc1ccc2c(-c3ccnc(Nc4cnn(C(F)F)c4)n3)cn(C)c2c1 [Example 188, N-[3-[2-[[1-(difluoromethyl)pyrazol-4-yl]amino]pyrimidin-4-yl]-1-methyl-indol-6-yl]prop-2-enamide]
0.1 to 100	0.1 to 100	0.1 to 100	0.1 to 100	0.1 to 100	–	–	0.1 to 100	C=CC(=O)Nc1ccc2c(c1)c(C)cn2-c1nc(Nc2cnn(C[C@H](C)O)c2)ncc1F [Example 186, N-[1-[5-Fluoro-2-[[1-[(2S)-2-hydroxypropyl]pyrazol-4-yl]amino]pyrimidin-4-yl]-3-methyl-indol-5-yl]prop-2-enamide]

Continued, molecule first:

SMILES	Kd (FGFR3 (V555M)) [nM]	Kd (FGFR1) [nM]	IC50 [1] [nM]	Kd (FGFR2) [nM]	Kd (FGFR3) [nM]	IC50 [2] [nM]	IC50 [3] [nM]	IC50 [4] [nM]
C=CC(=O)Nc1ccc2c(c1)c(C)cn2-c1nc(Nc2ccc(CN3CCOCC3)c(F)c2)ncc1Cl [Example 68, N-[1-[5-chloro-2-[3-fluoro-4-(morpholinomethyl)anilino]pyrimidin-4-yl]-3-methyl-indol-5-yl]prop-2-enamide]	0.1 to 100	0.1 to 100	0.1 to 100	0.1 to 100	0.1 to 100	0.1 to 100	–	–
C=CC(=O)Nc1ccc2c(c1)c(C)cn2-c1nc(Nc2cn(C)nc2OC)ncc1Cl [Example 26, N-[1-[5-chloro-2-[(3-methoxy-1-methyl-pyrazol-4-yl)amino]pyrimidin-4-yl]-3-methyl-indol-5-yl]prop-2-enamide]	0.1 to 100	0.1 to 100	100 to 250	0.1 to 100	0.1 to 100	0.1 to 100	0.1 to 100	–
C=CC(=O)Nc1ccc2c(ccn2-c2nc(Nc3ccc(OCCN4CCOCC4)cc3)ncc2Cl)c1 [Example 10, N-[1-[5-chloro-2-[4-(2-morpholinoethoxy)anilino]pyrimidin-4-yl]indol-5-yl]prop-2-enamide]	0.1 to 100	100 to 250	0.1 to 100	100 to 250	0.1 to 100	0.1 to 100	0.1 to 100	–
C=CC(=O)Nc1ccc2c(ccn2-c2nc(Nc3cccc(OCCN4CCOCC4)c3)ncc2Cl)c1C [Example 7, N-[1-[5-chloro-2-[3-(2-morpholinoethoxy)anilino]pyrimidin-4-yl]-4-methyl-indol-5-yl]prop-2-enamide]	0.1 to 100	0.1 to 100	> 1000	100 to 250	100 to 250	> 1000	250 to 1000	–
C=CC(=O)Nc1ccc2c(-c3ccnc(Nc4ccc(N5CCOCC5)cc4)n3)cn(C)c2c1 [Example 53, N-[1-Methyl-3-[2-(4-morpholino-anilino)pyrimidin-4-yl]indol-6-yl]prop-2-enamide]	0.1 to 100	0.1 to 100	–	0.1 to 100	0.1 to 100	0.1 to 100	0.1 to 100	0.1 to 100
C=CC(=O)Nc1ccc2c(c1)c(C)cn2-c1nc(Nc2cn(C)cn2)ncc1C [Example 36, N-[3-methyl-1-[5-methyl-2-[(1-methylimidazol-4-yl)amino]pyrimidin-4-yl]indol-5-yl]prop-2-enamide]	0.1 to 100	0.1 to 100	100 to 250	0.1 to 100	0.1 to 100	0.1 to 100	–	–
C=CC(=O)Nc1ccc2c(c1)c(C)cn2-c1nc(Nc2cccc(CN3CCOCC3)c2)ncc1Cl [Example 78, N-[1-[5-chloro-2-[3-(morpholinomethyl)anilino]pyrimidin-4-yl]-3-methyl-indol-5-yl]prop-2-enamide]	0.1 to 100	0.1 to 100	0.1 to 100	0.1 to 100	0.1 to 100	–	–	0.1 to 100
C=CC(=O)Nc1ccc2c(c1)c(C)cn2-c1nc(Nc2ccnn2C)ncc1F [Example 69, N-[1-[5-fluoro-2-[(2-methylpyrazol-3-yl)amino]pyrimidin-4-yl]-3-methyl-indol-5-yl]prop-2-enamide]	0.1 to 100	100 to 250	0.1 to 100	0.1 to 100	0.1 to 100	0.1 to 100	–	–
